Results from US9138434B2, “Octahydrothienoquinoline derivative, pharmaceutical composition comprising derivative, and use of these” (KISSEI PHARMACEUTICAL CO., LTD., priority 2011, dated 2015).

System: unilateral 6-OHDA-lesioned hemi-Parkinsonian rats
Assay: Contralateral rotational behavior in unilateral 6-hydroxydopamine-lesioned hemi-parkinsonian rats
Format: in vivo, rat (male Sprague-Dawley)
Settings: 10 mg/kg oral, fasted rats, observed up to 24 hours, mean; for Total number or rotations: contralateral rotations; for Duration: duration of contralateral rotation response
Experimental: 6-OHDA was dissolved at 2 mg/mL in a physiolosical saline solution containing 0.2% L-ascorbic acid. Desipramine was dissolved at 10 mg/mL in a physiolosical saline solution in a hot-water bath. Apomorphine was dissolved at 0.1 mg/mL in a physiolosical saline solution. […] Test compounds were dissolved in a solution containing 2% DMA, 100 or 200 mol % hydrochloric acid, and 98% of a 0.5% methyl cellulose solution. […] (Eur J Pharmacol, 2000, vol. 408, P. 249-255) with a minor modification. Male Sprague-Dawley rats (6-weeks-old, Charles River Laboratories Japan Inc.) were anaesthetized with intraperitoneal somnopentyl (45 mg/kg) injection and placed in a stereotaxic frame (Narishige). In order to prevent 6-OHDA-induced damage of noradrenergic neurons, desipramine (25 mg/kg) was intraperitoneally injected 30 minutes before the 6-OHDA injection. After the bregma identification via a middle calvarial incision, the skull was drilled using a dental drill at the site of 6-OHDA injection. The lesion was made by injecting 6-OHDA (8 μg in 4 μL at a speed of 1 μL/minute) unilaterally into the left medial forebrain bundle by using a injection cannula (30 gauge needle) connected to a microsyringe (Hamilton) (the lesion coordinates; A/P −2.5 mm, L/M −1.8 mm, and V/D −8.0 mm, from the bregma point and surface of the skull). The cannula was carefully removed from the animal after keeping placed on the lesion site for 5 minutes. The skull was filled its hole with dental cement, disinfected, and the scalp incision was surgically sutured. Animals recovered from anesthesia were housed as usual until the day of the experiment. 3) Determining of Contralateral Rotational Behavior Three weeks after the lesion, rats were tested on the basis of their contralateral rotational behavior (single rotation was defined as a 360° turn) in response to 0.1 mg/kg apomorphine given subcutaneously. For behavioral observation, rats were placed in plastic cylinders of a diameter of 30 cm, and its contralateral rotational behaviors were videotaped and quantified by rat-rotation auto counting system R-RACS (Kissei Wellcom). On the experimental day, animals were fasted overnight, and test compounds were orally administrated at doses of 10 mg/kg. […] Total number of rotations and the duration of the response in experimental period were presented as mean value.

SMILES	Total number or rotations	Duration [min]
CCCCN(C(=O)NCCN(C)C)C(=O)[C@@H]1C[C@@H]2Cc3c(sc(N)c3C#N)C[C@H]2N(C)C1 (relative stereo) [1-24, 1-{[(4aR*,6R*,8aR*)-2-amino-3-cyano-8-methyl-4H,4aH,5H,6H,7H,8H,8aH,9H-thieno[3,2-g]quinolin-6-yl]carbonyl}-1-butyl-3-[2-(dimethylamino)ethyl]urea]	5230.0	766.3
CC(C)CCN(C(=O)NCCN(C)C)C(=O)[C@@H]1C[C@@H]2Cc3c(sc(N)c3C#N)C[C@H]2N(C)C1 (relative stereo) [1-43, 1-{[(4aR*,6R*,8aR*)-2-amino-3-cyano-8-methyl-4H,4aH,5H,6H,7H,8H,8aH,9H-thieno[3,2-g]quinolin-6-yl]carbonyl}-3-[2-(dimethylamino)ethyl]-1-(3-methylbutyl)urea]	7557.5	843.8
CCCCN(C(=O)NCCN1CCCCC1)C(=O)[C@@H]1C[C@@H]2Cc3c(sc(N)c3C#N)C[C@H]2N(C)C1 (relative stereo) [1-46, 1-{[(4aR*,6R*,8aR*)-2-amino-3-cyano-8-methyl-4H,4aH,5H,6H,7H,8H,8aH,9H-thieno[3,2-g]quinolin-6-yl]carbonyl}-1-butyl-3-[2-(piperidin-1-yl)ethyl]urea]	10329.8	1158.8
CCCN(C(=O)NCCN(C)C)C(=O)[C@@H]1C[C@@H]2Cc3c(sc(N)c3C#N)C[C@H]2N(C)C1 [1-1, 1-{[(4aR,6R,8aR)-2-amino-3-cyano-8-methyl-4H,4aH,5H, 6H,7H,8H,8aH,9H-thieno[3,2-g]quinolin-6-yl]carbonyl}-3-[2-(dimethylamino)ethyl]-1-propylurea]	9431.8	1101.3
CCCCN(C(=O)NCCN(CC)CC)C(=O)[C@@H]1C[C@@H]2Cc3c(sc(N)c3C#N)C[C@H]2N(C)C1 [1-3, 1-{[(4aR,6R,8aR)-2-amino-3-cyano-8-methyl-4H,4aH,5H,6H,7H,8H,8aH,9H-thieno[3,2-g]quinolin-6-yl]carbonyl}-1-butyl-3-[2-(diethylamino)ethyl]urea]	4478.3	845.0
CCN(C(=O)NCC(C)(C)CN(C)C)C(=O)[C@@H]1C[C@@H]2Cc3c(sc(N)c3C#N)C[C@H]2N(C)C1 [1-4, 1-{[(4aR,6R,8aR)-2-amino-3-cyano-8-methyl-4H,4aH,5H,6H,7H,8H,8aH,9H-thieno[3,2-g]quinolin-6-yl]carbonyl}-3-[3-(dimethylamino)-2,2-dimethylpropyl]-1-ethlylurea]	6338.8	1131.3
CCN(C(=O)N[C@@H](C)CN(C)C)C(=O)[C@@H]1C[C@@H]2Cc3c(sc(N)c3C#N)C[C@H]2N(C)C1 [1-57, 1-{[(4aR,6R,8aR)-2-amino-3-cyano-8-methyl-4H,4aH,5H,6H, 7H,8H,8aH,9H-thieno[3,2-g]quinolin-6-yl]carbonyl}-3-[(2S)-1-(dimethylamino)propan-2-yl]-1-ethylurea]	9976.5	1190.0
CCN(C(=O)NCCN(C)C)C(=O)[C@@H]1C[C@@H]2Cc3c(sc(N)c3C#N)C[C@H]2N(C)C1 [1-108, 1-{[(4aR,6R,8aR)-2-amino-3-cyano-8-methyl-4H,4aH,5H,6H,7H,8H,8aH,9H-thieno[3,2-g]quinolin-6-yl]carbonyl}-3-[2-(dimethylamino)ethyl]-1-ethylurea]	2577.5	698.8
CCCN(CCC)CCc1cccc2c1CC(=O)N2 [Ropinirole, ropinirole, reference compound]	276.3	61.3
